Reference: US10703757B2, “Compounds and methods for CDK8 modulation and indications therefor” (Plexxikon Inc., priority 2016, dated 2020)

Key:
[1] = tested on: CDK8 (phosphorylation of STAT1 at serine 727 in A549 cells); assay: Cell based Phospho-STAT1 assay (IFNγ-stimulated A549 cells, AlphaLISA); details: Homo sapiens, A549, A549 cells, phospho-STAT1 after IFNγ stimulation
Procedure, shortened: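 A549 cells given serial compound dilutions for 1 h at 37 °C, then stimulated with IFNγ at 10 ng/mL final for 30 min. Lysate STAT1 Ser727 phosphorylation measured by AlphaLISA; % inhibition vs stimulated/unstimulated DMSO controls, IC50 by nonlinear regression.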

[2] = tested on: CDK8 (TCF/LEF luciferase reporter in HCT116 cells); assay: Cell based TCF/LEF reporter assay (HCT116+TCF/LEF luciferase); details: Homo sapiens, HCT-116, 24 h
Procedure, shortened: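 HCT116 cells stably carrying a TCF/LEF-luciferase reporter (endogenous mutant β-catenin), seeded overnight, then exposed to serial compound dilutions for 24 h at 37 °C. Luminescence normalized to CellTiter-Fluor viability signal. % inhibition relative to DMSO and 10 uM CCT251545 controls, with IC50 from nonlinear regression.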

SMILES | IC50 [1] [nM] | IC50 [2] [nM]
COc1ccc2cc(-c3cnn4ccnc(C5=CCC(C(N)=O)CC5)c34)ccc2n1 (centres unmarked) [Compound P-0154, 4-(3-(2-methoxyquinolin-6-yl)pyrazolo[1,5-a]pyrazin-4-yl)cyclohex-3-ene-1-carboxamide] | 0.1 to 100 | 0.1 to 100
N#CC1CC=C(c2c(-c3ccc4c(c3)OCC(=O)N4)cnc3[nH]ccc23)CC1 (centres unmarked) [Compound P-0205, 4-(5-(3-oxo-3,4-dihydro-2H-benzo[b][1,4]oxazin-7-yl)-1H-pyrrolo[2,3-b]pyridin-4-yl)cyclohex-3-ene-1-carbonitrile] | 100 to 1000 | 0.1 to 100
CC(C)(O)Cn1cc(-c2ccc(-c3cnc4[nH]ccc4c3C3=CCC(C#N)CC3)cc2)cn1 (centres unmarked) [Compound P-0332, 4-(5-(4-(1-(2-hydroxy-2-methylpropyl)-1H-pyrazol-4-yl)phenyl)-1H-pyrrolo[2,3-b]pyridin-4-yl)cyclohex-3-ene-1-carbonitrile] | 0.1 to 100 | 0.1 to 100
CC(C)(O)C#Cc1cccn2ncc(-c3ccc4cc(NS(C)(=O)=O)ccc4c3)c12 [Compound P-0216, N-(6-(4-(3-hydroxy-3-methylbut-1-yn-1-yl)pyrazolo[1,5-a]pyridin-3-yl)naphthalen-2-yl)methanesulfonamide] | 0.1 to 100 | 100 to 1000
Cc1ccc2cc(-c3cnc4[nH]ccc4c3C#CC(C)(C)C(N)=O)ccc2n1 [Compound P-0131, 2,2-dimethyl-4-(5-(2-methylquinolin-6-yl)-1H-pyrrolo[2,3-b]pyridin-4-yl)but-3-ynamide] | 100 to 1000 | 1000 to 10000
CC(=O)Nc1cc(-c2cnn3ccnc(C4=CCC(C#N)CC4)c23)ccn1 (centres unmarked) [Compound P-0080, N-(4-(4-(4-cyanocyclohex-1-ene-1-yl)pyrazolo[1,5-a]pyrazin-3-yl)pyridin-2-yl)acetamide] | 0.1 to 100 | 0.1 to 100
N#CC1CCC(c2cccn3ncc(-c4ccc(-n5cccn5)cc4)c23)CC1 (centres unmarked) [Compound P-0218, 4-(3-(4-(1H-pyrazol-1-yl)phenyl)pyrazolo[1,5-a]pyridin-4-yl)cyclohexane-1-carbonitrile] | 0.1 to 100 | 0.1 to 100
Cc1ncc(-c2cnn3ccnc(C4=CCC(C#N)CC4)c23)s1 (centres unmarked) [Compound P-0077, 4-(3-(2-methylthiazol-5-yl)pyrazolo[1,5-a]pyrazin-4-yl)cyclohex-3-ene-1-carbonitrile] | 100 to 1000 | 100 to 1000
CC(C)(O)Cn1cc(-c2ccc(-c3cnn4ccnc(C5=CCC(C#N)CC5)c34)cc2F)cn1 (centres unmarked) [Compound P-0163, 4-(3-(3-fluoro-4-(1-(2-hydroxy-2-methylpropyl)-1H-pyrazol-4-yl)phenyl)pyrazolo[1,5-a]pyrazin-4-yl)cyclohex-3-ene-1-carbonitrile] | 0.1 to 100 | 0.1 to 100
Cc1nc2cc(-c3cnn4ccnc(C5=CCC(C#N)CC5)c34)ccc2[nH]1 (centres unmarked) [Compound P-0056, 4-(3-(2-methyl-1H-benzo[d]imidazol-5-yl)pyrazolo[1,5-a]pyrazin-4-yl)cyclohex-3-ene-1-carbonitrile] | 0.1 to 100 | 0.1 to 100
CNC(=O)c1ccc2cc(-c3cnc4[nH]ccc4c3C3=CCC(C#N)CC3)ccc2c1 (centres unmarked) [Compound P-0268, 6-(4-(4-cyanocyclohex-1-en-1-yl)-1H-pyrrolo[2,3-b]pyridin-5-yl)-N-methyl-2-naphthamide] | 0.1 to 100 | 0.1 to 100
Cn1cc(-c2ccc(-c3cnn4cccc(C5=CCC(C(=O)O)CC5)c34)cc2)cn1 (centres unmarked) [Compound P-0444, 4-(3-(4-(1-methyl-1H-pyrazol-4-yl)phenyl)pyrazolo[1,5-a]pyridin-4-yl)cyclohex-3-ene-1-carboxylic acid] | 100 to 1000 | 100 to 1000
N#CC1CCN(c2cccn3ncc(-c4cccc(OCc5ccccc5)c4)c23)CC1 [Compound P-0252, 1-(3-(3-(benzyloxy)phenyl)pyrazolo[1,5-a]pyridin-4-yl)piperidine-4-carbonitrile] | 1000 to 10000 | 1000 to 10000
N#CC1CC=C(c2c(-c3ccc4[nH]c(=O)[nH]c4c3)cnc3[nH]ccc23)CC1 (centres unmarked) [Compound P-0206, 4-(5-(2-oxo-2,3-dihydro-1H-benzo[d]imidazol-5-yl)-1H-pyrrolo[2,3-b]pyridin-4-yl)cyclohex-3-ene-1-carbonitrile] | 0.1 to 100 | 0.1 to 100
N#CC1CC=C(c2nccn3ncc(-c4ccc(OCCCN5CCCCC5)cc4)c23)CC1 (centres unmarked) [Compound P-0086, 4-(3-(4-(3-(piperidin-1-yl)propoxy)phenyl)pyrazolo[1,5-a]pyrazin-4-yl)cyclohex-3-ene-1-carbonitrile] | 0.1 to 100 | 100 to 1000
N#CC1CCN(c2cccn3ncc(-c4ccc(-c5cnn(C(F)F)c5)cc4)c23)CC1 [Compound P-0415, 1-(3-(4-(1-(difluoromethyl)-1H-pyrazol-4-yl)phenyl)pyrazolo[1,5-a]pyridin-4-yl)piperidine-4-carbonitrile] | 0.1 to 100 | 0.1 to 100

SMILES | IC50 [1] [nM] | IC50 [2] [nM]
CC(C)(C#Cc1nccn2ncc(-c3ccc(N4CCOCC4)c(F)c3)c12)C(N)=O [Compound P-0099, 4-(3-(3-fluoro-4-morpholinophenyl)pyrazolo[1,5-a]pyrazin-4-yl)-2,2-dimethylbut-3-ynamide] | 0.1 to 100 | 100 to 1000
N#CC1CC=C(c2nccn3ncc(-c4ccc(F)cc4)c23)CC1 (centres unmarked) [Compound P-0089, 4-(3-(4-fluorophenyl)pyrazolo[1,5-a]pyrazin-4-yl)cyclohex-3-ene-1-carbonitrile] | 0.1 to 100 | 100 to 1000
CC(C)(C#Cc1cccn2ncc(-c3ccc(-c4cnn(CC(N)=O)c4)cc3)c12)C(N)=O [Compound P-0462, 4-(3-(4-(1-(2-amino-2-oxoethyl)-1H-pyrazol-4-yl)phenyl)pyrazolo[1,5-a]pyridin-4-yl)-2,2-dimethylbut-3-ynamide] | 0.1 to 100 | 0.1 to 100
N#CC1CC=C(c2cccn3ncc(-c4ccc(OCCCN5CCCCC5)cc4)c23)CC1 (centres unmarked) [Compound P-0180, 4-(3-(4-(3-(piperidin-1-yl)propoxy)phenyl)pyrazolo[1,5-a]pyridin-4-yl)cyclohex-3-ene-1-carbonitrile] | 0.1 to 100 | 0.1 to 100
NC(=O)C1CCC(c2cccn3ncc(-c4ccc(-c5cnn(C(F)F)c5)cc4)c23)CC1 (centres unmarked) [Compound P-0316, 4-(3-(4-(1-(difluoromethyl)-1H-pyrazol-4-yl)phenyl)pyrazolo[1,5-a]pyridin-4-yl)cyclohexane-1-carboxamide] | 0.1 to 100 | 0.1 to 100
N#CC1CCC(c2nccn3ncc(-c4ccc(-n5ccnn5)cc4)c23)CC1 (centres unmarked) [Compound P-0211, 4-(3-(4-(1H-1,2,3-triazol-1-yl)phenyl)pyrazolo[1,5-a]pyrazin-4-yl)cyclohexane-1-carbonitrile] | 0.1 to 100 | 100 to 1000
CC(C)(O)Cn1cc(-c2ccc(-c3cnn4ccnc(C5=CCC(C#N)CC5)c34)cc2Cl)cn1 (centres unmarked) [Compound P-0042, 4-(3-(3-chloro-4-(1-(2-hydroxy-2-methylpropyl)-1H-pyrazol-4-yl)phenyl)pyrazolo[1,5-a]pyrazin-4-yl)cyclohex-3-ene-1-carbonitrile] | 0.1 to 100 | 0.1 to 100
N#CC1CC=C(c2nccn3ncc(-c4ccc(Cl)c(F)c4)c23)CC1 (centres unmarked) [Compound P-0083, 4-(3-(4-chloro-3-fluorophenyl)pyrazolo[1,5-a]pyrazin-4-yl)cyclohex-3-ene-1-carbonitrile] | 100 to 1000 | 100 to 1000
Cn1cc(C#Cc2cnc3cccc(N4CCC5(CC4)NCNC5=O)n23)cn1 [Compound P-0275, 8-(3-((1-methyl-1H-pyrazol-4-yl)ethynyl)imidazo[1,2-a]pyridin-5-yl)-1,3,8-triazaspiro[4.5]decan-4-one] | 100 to 1000 | 100 to 1000
N#CC1CC=C(c2cccn3ncc(-c4ccc(CN5CCOCC5)c(F)c4)c23)CC1 (centres unmarked) [Compound P-0120, 4-(3-(3-fluoro-4-(morpholinomethyl)phenyl)pyrazolo[1,5-a]pyridin-4-yl)cyclohex-3-ene-1-carbonitrile] | 0.1 to 100 | 100 to 1000
CS(=O)(=O)Nc1ccc2cc(-c3cnn4ccnc(C5=CCC(C#N)CC5)c34)ccc2n1 (centres unmarked) [Compound P-0151, N-(6-(4-(4-cyanocyclohex-1-ene-1-yl)pyrazolo[1,5-a]pyrazin-3-yl)quinolin-2-yl)methanesulfonamide] | 0.1 to 100 | 0.1 to 100
N#CC1CCN(c2cccn3ncc(-c4ccc(OCC(O)CN5CCCCC5)cc4)c23)CC1 (centres unmarked) [Compound P-0263, 1-(3-(4-(2-hydroxy-3-(piperidin-1-yl)propoxy)phenyl)pyrazolo[1,5-a]pyridin-4-yl)piperidine-4-carbonitrile] | 0.1 to 100 | 0.1 to 100
N#CC1CCC(c2nccn3ncc(-c4ccc(-c5cnn(CCN6CCCC6)c5)cc4)c23)CC1 (centres unmarked) [Compound P-0017, (1s,4s)-4-(3-(4-(1-(2-(pyrrolidin-1-yl)ethyl)-1H-pyrazol-4-yl)phenyl)pyrazolo[1,5-a]pyrazin-4-yl)cyclohexane-1-carbonitrile] | 0.1 to 100 | 0.1 to 100
COc1ccc2cc(-c3cnn4cccc(C5=CCC(C#N)CC5)c34)ccc2n1 (centres unmarked) [Compound P-0242, 4-(3-(2-methoxyquinolin-6-yl)pyrazolo[1,5-a]pyridin-4-yl)cyclohex-3-ene-1-carbonitrile] | 0.1 to 100 | 0.1 to 100
CC(C)(O)C#Cc1cccn2ncc(-c3ccc4nccn4c3)c12 [Compound P-0286, 4-(3-(imidazo[1,2-a]pyridin-6-yl)pyrazolo[1,5-a]pyridin-4-yl)-2-methylbut-3-yn-2-ol] | 0.1 to 100 | 100 to 1000
